Laboratory results reported in patent US6352958B1, “Cycloimido-substituted benzofused heterocyclic herbicides” (FMC Corporation, priority 1997, dated 2002).

Key:
Type in all cases: in vivo
[1] = system: blackgrass (Aloepecurus myosuroides); test: Preemergence herbicidal activity, blackgrass; details: Rate of Application 0.3 Kg/Ha, examined after 12-17 days
[2] = system: field corn (Zea mays var. Pioneer 3732); test: Postemergence herbicidal activity, corn; details: rate of application 0.3 Kg/Ha, rated after 12-17 days
[3] = system: common cocklebur (Xanthium strumarium L.); test: Preemergence herbicidal activity, cocklebur; details: Rate of Application 0.3 Kg/Ha, examined after 12-17 days
[4] = system: velvetleaf (Abutilon theophrasti); test: Postemergence herbicidal activity, velvetleaf; details: rate of application 0.3 Kg/Ha, rated after 12-17 days
[5] = system: wheat (Triticum aestivum var. Lew); test: Preemergence herbicidal activity, wheat; details: Rate of Application 0.3 Kg/Ha, examined after 12-17 days
[6] = system: wheat (Triticum aestivum var. Lew); test: Postemergence herbicidal activity, wheat; details: rate of application 0.3 Kg/Ha, rated after 12-17 days
[7] = system: morningglory (Ipomea lacunosa or Ipomea hederacea); test: Preemergence herbicidal activity, morningglory; details: Rate of Application 0.3 Kg/Ha, examined after 12-17 days
[8] = system: soybean (Glycine max var. Winchester); test: Preemergence herbicidal activity, soybean; details: Rate of Application 0.3 Kg/Ha, examined after 12-17 days
[9] = system: velvetleaf (Abutilon theophrasti); test: Preemergence herbicidal activity, velvetleaf; details: Rate of Application 0.3 Kg/Ha, examined after 12-17 days
[10] = system: green foxtail (Setaria viridis); test: Preemergence herbicidal activity, green foxtail; details: Rate of Application 0.3 Kg/Ha, examined after 12-17 days
[11] = system: Johnsongrass (Sorghum halepense); test: Preemergence herbicidal activity, johnsongrass; details: Rate of Application 0.3 Kg/Ha, examined after 12-17 days
[12] = system: blackgrass (Aloepecurus myosuroides); test: Postemergence herbicidal activity, blackgrass; details: rate of application 0.3 Kg/Ha, rated after 12-17 days
Experimental: The benzofused heterocyclic compounds of this invention were tested for pre- and postemergence herbicidal activity using a variety of crops and weeds. The test plants included soybean (Glycine max var. Winchester), field corn (Zea mays var. Pioneer 3732), wheat (Triticum aestivum var. Lew), morningglory (Ipomea lacunosa or Ipomea hederacea), velvetleaf (Abutilon theophrasti), green foxtail (Setaria viridis), Johnsongrass (Sorghum halepense), blackgrass (Aloepecurus myosuroides), common chickweed (Stellaria media), and common cocklebur (Xanthium strumarium L.).
For preemergence testing, two disposable fiber flats (8 cm×15 cm×25 cm) for each rate of application of each candidate herbicide were filled to an approximate depth of 6.5 cm with steam-sterilized sandy loam soil. The soil was leveled and impressed with a template to provide five evenly spaced furrows 13 cm long and 0.5 cm deep in each flat. Seeds of soybean, wheat, corn, green foxtail, and johnsongrass were planted in the furrows of the first flat, and seeds of velvetleaf, morningglory, common chickweed, cocklebur, and blackgrass were planted in the furrows of the second flat. The five-row template was employed to firmly press the seeds into place. A topping soil of equal portions of sand and sandy loam soil was placed uniformly on top of each flat to a depth of approximately 0.5 cm. Flats for postemergence testing were prepared in the same manner except that they were planted 9-14 days prior to the preemergence flats and were placed in a greenhouse and watered, thus allowing the seeds to germinate and the foliage to develop.
In both pre- and postemergence tests, a stock solution of the candidate herbicide was prepared by dissolving 0.27 g of the compound in 20 mL of water/acetone (50/50) containing 0.5% v/v sorbitan monolaurate. For an application rate of 3000 g/ha of herbicide a 10 mL portion of the stock solution was diluted with water/acetone (50/50) to 45 mL.
The preemergence flats were initially subjected to a light water spray. The four flats were placed two by two along a conveyor belt (i.e., the two preemergence followed by the two postemergence flats). The conveyor belt fed under a spray nozzle mounted about ten inches above the post-emergent foliage. The preemergent flats were elevated on the belt so that the soil surface was at the same level below the spray nozzle as the foliage canopy of the postemergent plants. The spray of herbicidal solution was commenced and once stabilized, the flats were passed under the spray at a speed to receive a coverage equivalent of 100 L/ha. At this coverage the application rates are those shown in the above table for the individual herbicidal solutions. The preemergence flats were watered immediately thereafter, placed in the greenhouse and watered regularly at the soil surface. The postemergence flats were immediately placed in the green-house and not watered until 24 hours after treatment with the test solution. Thereafter they were regularly watered at ground level. After 12-17 days the plants were examined and the phytotoxicity data were recorded.
Phytotoxicity data were taken as percent control. Percent control was determined by a method similar to the 0 to 100 rating system disclosed in “Research Methods in Weed Science,” 2nd ed., B. Truelove, Ed.; Southern Weed Science Society; Auburn University, Auburn, Ala., 1977.

[13] = system: Johnsongrass (Sorghum halepense); test: Postemergence herbicidal activity, johnsongrass; details: rate of application 0.3 Kg/Ha, rated after 12-17 days
[14] = system: morningglory (Ipomea lacunosa or Ipomea hederacea); test: Postemergence herbicidal activity, morningglory; details: rate of application 0.3 Kg/Ha, rated after 12-17 days
[15] = system: soybean (Glycine max var. Winchester); test: Postemergence herbicidal activity, soybean; details: rate of application 0.3 Kg/Ha, rated after 12-17 days
[16] = system: green foxtail (Setaria viridis); test: Postemergence herbicidal activity, green foxtail; details: rate of application 0.3 Kg/Ha, rated after 12-17 days
[17] = system: field corn (Zea mays var. Pioneer 3732); test: Preemergence herbicidal activity, corn; details: Rate of Application 0.3 Kg/Ha, examined after 12-17 days
[18] = system: common chickweed (Stellaria media); test: Preemergence herbicidal activity, chickweed; details: Rate of Application 0.3 Kg/Ha, examined after 12-17 days
[19] = system: common chickweed (Stellaria media); test: Postemergence herbicidal activity, chickweed; details: rate of application 0.3 Kg/Ha, rated after 12-17 days
[20] = system: common cocklebur (Xanthium strumarium L.); test: Postemergence herbicidal activity, cocklebur; details: rate of application 0.3 Kg/Ha, rated after 12-17 days

Row | Structure (SMILES) | PREEMERGENCE HERBICIDAL ACTIVITY (% CONTROL) ALOMY [1] | Postemergence herbicidal activity (% control) CRN [2] | PREEMERGENCE HERBICIDAL ACTIVITY (% CONTROL) XANPE [3] | Postemergence herbicidal activity (% control) ABUTH [4] | PREEMERGENCE HERBICIDAL ACTIVITY (% CONTROL) WHT [5] | Postemergence herbicidal activity (% control) WHT [6] | PREEMERGENCE HERBICIDAL ACTIVITY (% CONTROL) IPOSS [7] | PREEMERGENCE HERBICIDAL ACTIVITY (% CONTROL) SOY [8] | PREEMERGENCE HERBICIDAL ACTIVITY (% CONTROL) ABUTH [9] | PREEMERGENCE HERBICIDAL ACTIVITY (% CONTROL) SETVI [10] | PREEMERGENCE HERBICIDAL ACTIVITY (% CONTROL) SORHA [11] | Postemergence herbicidal activity (% control) ALOMY [12] | Postemergence herbicidal activity (% control) SORHA [13] | Postemergence herbicidal activity (% control) IPOSS [14] | Postemergence herbicidal activity (% control) SOY [15] | Postemergence herbicidal activity (% control) SETVI [16] | PREEMERGENCE HERBICIDAL ACTIVITY (% CONTROL) CRN [17] | PREEMERGENCE HERBICIDAL ACTIVITY (% CONTROL) STEME [18] | Postemergence herbicidal activity (% control) STEME [19] | Postemergence herbicidal activity (% control) XANPE [20]
1 | Cn1c(C(F)(F)F)cc(=O)n(-c2c(F)cc(Br)c3oc(COc4ccc(Cl)cc4)nc23)c1=O [Compound 102] | 90% | 75% | 50% | 100% | 30% | 30% | 70% | 20% | 100% | 100% | 60% | 60% | 60% | 100% | 80% | 90% | 10% |  |  | 
2 | C#CCOc1nc2c(-n3c(=O)cc(C(F)(F)F)n(C)c3=O)c(F)cc(Br)c2o1 [Compound 106] | 70% | 75% | 60% | 100% | 40% | 30% | 100% | 30% | 100% | 90% | 55% | 60% | 70% | 100% | 80% | 100% | 70% | 95% |  | 
3 | CC(=O)OC(C)(C)c1nc2c(-n3c(=O)cc(C(F)(F)F)n(C)c3=O)c(F)cc(Cl)c2[nH]1 [Compound 371] | 100% | 100% | 100% | 100% | 95% | 100% | 100% | 100% | 100% | 100% | 100% |  | 100% | 100% | 95% | 100% | 100% | 100% | 100% | 100%
4 | CC(=O)OCc1nc2c(-n3c(=O)cc(C(F)(F)F)n(C)c3=O)c(F)cc(Br)c2o1 [Compound 101] | 80% | 80% | 80% | 100% | 70% | 50% | 100% | 80% | 100% | 100% | 100% | 60% | 65% | 100% | 95% | 65% | 100% |  |  | 
